# Experimental data taken from paper PMC5874719, “A π-Halogen Bond of Dibenzofuranones with the Gatekeeper Phe113 in Human Protein Kinase CK2 Leads to Potent Tight Binding Inhibitors” (Pharmaceuticals, 2018).
# “And” between values parts separate entries of the source, which are not always exact repeats. Equal values may be shown once. Read-outs that look alike come from different tables or passages of the source.
# Tests used:
# Type in all cases: biochemical
# CK2α’ = target: T1, CK2α’ (Homo sapiens, UniProt P19784); assay: kinase selectivity profile (Reaction Biology Corp.); conditions: 10 µM inhibitor, 10 µM ATP, relative to control without inhibitor; read-out: residual activity
# T1 construct: purchased Reaction Biology Corp
# From the text: (§1) This demands further investigation.
# CK2α = target: T2, CK2α (Homo sapiens, UniProt P68400); assay: as above; conditions: 10 µM inhibitor, 10 µM ATP, relative to control without inhibitor; read-out: residual activity
# T2 construct: purchased Reaction Biology Corp
# From the text: as §1
# [1] = target: T3, human protein kinase CK2 holoenzyme (CK2α2β2) (Homo sapiens, UniProt P68400); assay: CE-based CK2 inhibition assay (phosphorylation of substrate peptide […]); conditions: for remaining activity at 10 µM: 10 µM compound, compared to activity without compound, read-out: residual enzymatic activity; for IC50: CK2 holoenzyme, 100 µM ATP, 13 concentrations 0.01 nM to 10 µM
# T3 construct: made in house
# Description: The phosporylation of an artificial substrate peptide ([…]) by the purified holoenzyme was analyzed in a capillary electrophoresis (CE) assay as described before. This peptide is commonly used for the determination of CK2 activity and phosphorylation was determined in the presence and in the absence of the compounds. For this purpose a stock solution of 10 mM in DMSO was prepared for each compound and diluted in the assay to a final concentration of 10 µM. […] Consequently 13 concentrations of both dibenzofurans, ranging from 0.01 nM to 10 µM were tested on their inhibition of CK2 dependent substrate phosphorylation in the presence of 100 μM ATP. […] This can be used to determine the so-called apparent Ki (Ki app) for different substrate (ATP) concentrations.
# Human protein kinase CK2 holoenzyme was pre-incubated for 10 min with 13 different concentrations of each compounds ranging from 0.01 nM to 10 μM before the enzymatic activity was determined. […] The resulting inhibition in % was set into relation to the concentration of the corresponding compound in a logarithmic scale. For the calculation of the sigmoidal curve fitting the date GraphPad Prism (GraphPad, La Jolla, CA, USA) was used, as well as for the compound concentrations corresponding to 50% enzyme inhibition.
# Phosphorylation of the substrate peptide […] by human protein kinase CK2 holoenzyme was determined in the CE assay at different ATP-concentrations (6, 30, 60, 150, 300, and 400 μM).
# In order to determine the inhibition toward human protein kinase CK2 holoenzyme, the dibenzo[b,d]furan derivatives were subjected to the CE-based CK2 assay, as already described for other novel CK2 inhibitors before. In summary, 78 µL of kinase buffer (50 mM Tris/HCl, pH 7.5, 100 mM NaCl, 10 mM MgCl2 and 1 mM DTT) containing 0.25 µg CK2 holoenzyme were supplemented with 2 µL of the test-compound dissolved in DMSO and incubated at 37 °C for 10 min. After the addition of 120 µL of assay buffer (25 mM Tris/HCl, pH 8.5, 150 mM NaCl, 5 mM MgCl2, 1 mM DTT, 190 µM substrate peptide […] and 100 µM ATP) the CK2 reactions were carried out for 15 min at 37 °C, before they were stopped by ice cooling and the addition of 5 µL of EDTA (10 mM, pH 8.0). The samples were then analyzed for phosphorylation of the CK2 substrate peptide by capillary electrophoresis. […] Controls for 100% and 0% inhibition were realized by samples containing pure DMSO and samples additionally lacking the CK2 holoenzyme. IC50 were calculated from the obtained dose response curves.
# FLT3 (D835Y) = target: T4, FLT3 (D835Y) (Homo sapiens, UniProt P36888, D835Y); assay: kinase selectivity profile; conditions: 10 µM inhibitor, 10 µM ATP
# T4 construct: purchased Reaction Biology Corp
# From the text: as §1
# Aurora A = target: T5, Aurora A (Homo sapiens, UniProt O14965); assay: kinase selectivity profile; conditions: 10 µM inhibitor, 10 µM ATP
# T5 construct: purchased Reaction Biology Corp
# T5 sequence (O14965 1-403): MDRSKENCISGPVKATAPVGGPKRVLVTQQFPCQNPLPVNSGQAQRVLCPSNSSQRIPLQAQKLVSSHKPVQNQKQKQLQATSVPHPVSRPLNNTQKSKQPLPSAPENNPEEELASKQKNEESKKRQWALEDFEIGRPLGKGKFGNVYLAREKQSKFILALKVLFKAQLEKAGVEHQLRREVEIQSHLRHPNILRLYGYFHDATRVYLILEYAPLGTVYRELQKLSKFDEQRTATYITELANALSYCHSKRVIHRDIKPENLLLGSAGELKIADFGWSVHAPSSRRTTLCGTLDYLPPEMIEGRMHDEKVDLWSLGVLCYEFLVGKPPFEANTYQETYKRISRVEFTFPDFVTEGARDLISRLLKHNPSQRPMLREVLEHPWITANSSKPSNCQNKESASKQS
# From the text: as §1
# [2] = test system: panel of 61 human protein kinases; assay: kinase selectivity profile, whole panel; conditions: 10 µM inhibitor, 10 µM ATP
# From the text: as §1
# [3] = target: T6, surface displayed CK2α’ + CK2β (CK2α’ containing human CK2 holoenzyme) (Homo sapiens, UniProt P19784); assay: whole-cell CK2 selectivity assay, holoenzyme surface displayed on E. coli; conditions: for IC50: CK2α’ + CK2β displayed on E. coli, 600 µM ATP, 100 µM substrate peptide; for factor of stronger inhibition of CK2α’ containing holoenzyme in comparison to CK2α containing holoenzyme: whole-cell assay, not statistically significant
# T6 construct: surface-display (autodisplay) carrier protein; made in house; host or cells: Escherichia coli BL21 (DE3), enzyme left on the cell surface
# From the text: We recently reported a whole cell CK2 activity assay, which can be used for testing the selectivity of compounds towards CK2α and CK2α’ [47]. It is based on the surface display of the human CK2 subunits, either α or α’ together with β on E. coli, were they are able to form a functional tetrameric holoenzymes, either ααββ or α’α’ββ, depending on which α isoform has been expressed. This technique was used to investigate whether 4a or 5 have preference to one of the two catalytic isoforms of CK2.
# For this purpose, their IC50 were determined following the protocol of the recently described whole-cell CK2 selectivity assay. In summary, 78 µL of a bacterial suspension of Escherichia coli BL21 (DE3) either surface displaying CK2α + CK2β or CK2α’ + CK2β in kinase buffer (50 mM Tris/HCl, pH 8.5, 100 mM NaCl, 10 mM MgCl2 and 1 mM DTT) were supplemented with 2 µL of the test compound dissolved in DMSO and incubated at 37 °C and 400 rpm for 10 min. CK2 reactions were started by the addition of 120 µL of assay buffer (25 mM Tris/HCl, pH 7.5, 150 mM NaCl, 5 mM MgCl2, 1 mM DTT, 167 µM substrate peptide […] and 1 mM ATP) leading to a total reaction volume of 200 µL with final concentrations of 100 µM for the substrate peptide and 600 µM for ATP. […] After the samples were incubated for 120 min at 37 °C and 400 rpm, the CK2 presenting bacteria were removed by centrifugation (3850× g, 5 min, 4 °C). The obtained supernatants were transferred to the wells of a 96 well-microplate and finally supplemented with EDTA to a concentration of 12.5 mM to definitely stop the enzymatic reactions. The samples were then subjected to a Beckman Coulter pa800 plus (Krefeld, Germany) CE system and analyzed for phosphorylation of the substrate peptide. Samples containing pure DMSO served as controls for 0% inhibition and samples additionally lacking ATP served as controls for 100% inhibition. […] IC50 values were calculated from the resulting dose-response curves.
# CK2α’ + CK2β (right column).
# Mean values ± standard errors of
# the means (SEM) are shown. […]
# [4] = Morrison equation, ATP 6–400 µM, best fit line extrapolated to ATP concentration = 0, read-out: apparent Ki (Ki app)
# T6 sequence (P19784 whole entry): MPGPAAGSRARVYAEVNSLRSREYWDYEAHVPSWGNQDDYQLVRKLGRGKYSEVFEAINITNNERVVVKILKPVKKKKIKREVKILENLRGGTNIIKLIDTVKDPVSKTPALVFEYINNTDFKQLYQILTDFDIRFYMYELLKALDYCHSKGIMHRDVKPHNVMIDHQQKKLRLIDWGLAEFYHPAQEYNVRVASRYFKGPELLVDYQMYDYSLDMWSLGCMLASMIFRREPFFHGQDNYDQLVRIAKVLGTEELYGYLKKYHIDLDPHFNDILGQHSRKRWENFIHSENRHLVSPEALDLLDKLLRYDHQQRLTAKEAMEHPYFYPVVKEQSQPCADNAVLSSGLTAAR
# T6 sequence (P67870 whole entry partner): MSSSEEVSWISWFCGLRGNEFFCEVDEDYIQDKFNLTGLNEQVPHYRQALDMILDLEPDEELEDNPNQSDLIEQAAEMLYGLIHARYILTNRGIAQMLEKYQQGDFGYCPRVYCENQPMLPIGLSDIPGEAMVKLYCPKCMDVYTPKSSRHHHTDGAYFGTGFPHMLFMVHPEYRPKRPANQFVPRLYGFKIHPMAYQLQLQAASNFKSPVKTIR
# T3 sequence (P68400 whole entry): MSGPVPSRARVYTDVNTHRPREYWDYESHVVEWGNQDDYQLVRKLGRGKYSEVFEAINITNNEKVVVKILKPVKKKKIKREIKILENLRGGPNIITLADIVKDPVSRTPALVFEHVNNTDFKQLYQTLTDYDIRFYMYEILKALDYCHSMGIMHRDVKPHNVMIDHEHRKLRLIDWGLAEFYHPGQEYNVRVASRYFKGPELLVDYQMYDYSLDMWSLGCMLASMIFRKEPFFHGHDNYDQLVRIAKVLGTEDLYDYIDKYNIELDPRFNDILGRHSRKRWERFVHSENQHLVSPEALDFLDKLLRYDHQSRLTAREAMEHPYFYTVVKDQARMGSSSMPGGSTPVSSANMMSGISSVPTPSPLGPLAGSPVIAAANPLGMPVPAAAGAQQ
# T3 sequence (P67870 whole entry partner): as the sequence (P67870 whole entry partner) above
# T1 sequence (P19784 whole entry): as the sequence (P19784 whole entry) above
# T2 sequence (P68400 whole entry): as the sequence (P68400 whole entry) above
remaining activity at 10 µM (CK2α’) [%],remaining activity at 10 µM (CK2α) [%],remaining activity at 10 µM [1] [%],IC50 [1],"Ki [1, 4]","Ki ([1]; repeated with double the amount of the enzyme CK2, different ATP concentrations, read-out: Ki app) [nM]",kinase inhibited more than 70% at 10 µM concentration (FLT3 (D835Y)),kinase inhibited more than 70% at 10 µM concentration (Aurora A),number of kinases out of the 61 kinases inhibited to more than 70% [2],IC50 [3] [nM],factor of stronger inhibition of CK2α’ containing holoenzyme in comparison to CK2α containing holoenzyme [3],SMILES
< 1,< 2,< 1,7 nM and 5 nM,0.41 nM and 0.4 nM,~4,FLT3 (D835Y),Aurora A,6,43,1.5,"COc1ccc(N/C=C2\C(=O)CCc3c2oc2cc(Cl)c(O)c(Cl)c32)cc1 [4a, 7,9-dichloro-1,2-dihydro-8-hydroxy-4-[(4-methoxyphenylamino)methylene]dibenzo[b,d]furan-3(2H)-one]"
< 1,< 2,< 1,5 nM and 7 nM,0.46 nM and 0.4 nM,–,FLT3 (D835Y),Aurora A,11,73,1.5,"COc1ccc(/N=C/c2c(O)ccc3c2oc2cc(Cl)c(O)c(Cl)c23)cc1 [compound 5, (E)-1,3-dichloro-6-[(4-methoxyphenylimino)methyl]dibenzo[b,d]furan-2,7-diol]"
